Key:
[1] = biological target: T1, heterodimerization of p66 and p51 (Human immunodeficiency virus type 1 group M subtype B, UniProt P12497); conditions: literature comparison values; cited from earlier work
T1 construct: active form of HIV-1 RT is a heterodimer containing two polypeptides, p66 and p51

[2] = biological target: T2, His-p51/FLAG-p66 RT heterodimer (Human immunodeficiency virus type 1 group M subtype B, UniProt P12497); test: Microplate eTag assay to monitor p66-p51 RT dimerization, in the presence of drugs; format: binding; conditions: drug concentration varied from 0 μM to 100 μM; released eTag quantitated; read-out: IC50 (heterodimerization of p66 and p51)
T2 construct: The gene for the 66 kDa subunit of HIV-1 RT; The gene for the 51 kDa subunit of HIV-1 RT; made in house; host or cells: E. coli
Method: The assay was performed by first capturing His-tagged p51 on Ni^2+-NTA microplates, and then adding FLAG-tagged p66 to form the heterodimer. To the heterodimer complex was added a solution of eTag covalently linked to FLAG antibodies resulting His-p51/FLAG-p66 RT heterodimer complexed to an eTag immobilized on the microplates. After washing to remove unbound material, the eTag was cleaved by the addition of methylene blue, and the amount of released eTags was measured and quantitated by electrophoretic separation.

calmodulin [CAM]
IC50 [1]: 1.9 µM | IC50 [2]: 3.7 µM

[2′,5′-bis-o-(butyldimethylsilyl)-3′-spiro 5′-(4′-amino-1′,2′-oxothiole-2′,2′-dioxide] [TSAO]
IC50 [1]: 6.7 µM | IC50 [2]: 6.4 µM

— patent US20120003667A1, “ELECTROPHORETIC TAG-BASED IN VITRO ASSAY TO QUANTIFY DIMERIZATION OF P66 AND P51 SUB-UNITS OF HIV-1 REVERSE TRANSCRIPTASE (RT)” (priority 2007, published 2012)
